# Test results as given in patent publication US9663473B2 (Actelion Pharmaceuticals Ltd, priority 2013, dated 2017).
# Counter-ions that a name gives are not always drawn.
# Target: T1, recombinant human ALX receptor (Homo sapiens, UniProt P25090)
# T1 construct: expressed in transfected cells; host or cells: HEK293 (HEK293-hALXR-Gα16)
# T1 sequence (P25090 1-351): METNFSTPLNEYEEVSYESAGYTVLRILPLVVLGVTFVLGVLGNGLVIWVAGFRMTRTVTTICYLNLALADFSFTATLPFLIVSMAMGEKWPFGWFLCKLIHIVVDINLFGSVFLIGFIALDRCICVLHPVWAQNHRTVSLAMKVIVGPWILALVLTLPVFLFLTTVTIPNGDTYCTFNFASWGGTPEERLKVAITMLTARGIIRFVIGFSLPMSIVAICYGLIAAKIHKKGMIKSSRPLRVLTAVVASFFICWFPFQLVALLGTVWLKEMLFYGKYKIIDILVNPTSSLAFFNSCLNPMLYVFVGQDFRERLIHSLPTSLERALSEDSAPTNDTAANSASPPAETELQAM
# Assay: Intracellular calcium measurements (FLIPR), ALX receptor agonistic activity
# Assay type: cell-based
# Conditions: HEK293-hALXR-Gα16 cells, Fluo-4 calcium signal, normalized to WKYMVm 10 nM
# Method in brief: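 HEK293 cells co-expressing human ALX receptor and Gα16 were loaded with 1 μM Fluo-4 AM for 60 min at 37° C., then exposed to serially diluted compounds on FLIPR Tetra. Peak fluorescence above baseline (ex 488/em 540 nm) was normalized to 10 nM WKYMVm as high control.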
row,SMILES,EC50 [µM]
1,"COc1ccc(C[C@@H](NC(=O)NC(C)(C)c2cccc(C)c2)c2nc3ccccc3[nH]2)cc1 [Example 353, (R)-1-(1-(1H-Benzo[d]imidazol-2-yl)-2-(4-methoxyphenyl)ethyl)-3-(2-(m-tolyl)propan-2-yl)urea]",0.461
2,"COc1ccc(CC(NC(=O)N[C@@H](C)c2cccc(Cl)c2)c2nc3ccccc3[nH]2)cc1 (stereo partly drawn) [Example 360, 1-(1-(1H-Benzo[d]imidazol-2-yl)-2-(4-methoxyphenyl)ethyl)-3-((S)-1-(3-chlorophenyl)ethyl)urea]",0.561
3,"COc1ccc(CC(NC(=O)NCc2cc(C(C)C)on2)c2nc3ccccc3[nH]2)cc1 (centres unmarked) [Example 377, 1-(1-(1H-Benzo[d]imidazol-2-yl)-2-(4-methoxyphenyl)ethyl)-3-((5-isopropylisoxazol-3-yl)methyl)urea]",1.63
4,"COc1ccc(C[C@@H](NC(=O)N[C@H](CC(=O)OC(C)(C)C)c2ccccc2)c2nc3ccccc3[nH]2)cc1 [Example 378, (R)-tert-Butyl 3-(3-((R)-1-(1H-benzo[d]imidazol-2-yl)-2-(4-methoxyphenyl)ethyl)ureido)-3-phenylpropanoate]",1.47
5,"COc1ccc(C[C@@H](NC(=O)Nc2ccon2)c2nc3ccccc3[nH]2)cc1 [Example 379, (R)-1-(1-(1H-Benzo[d]imidazol-2-yl)-2-(4-methoxyphenyl)ethyl)-3-(isoxazol-3-yl)urea hydrochloride]",1.09
6,"COc1ccc(CC(NC(=O)NCc2cc(C3CC3)on2)c2nc3ccccc3[nH]2)cc1 (centres unmarked) [Example 380, 1-(1-(1H-Benzo[d]imidazol-2-yl)-2-(4-methoxyphenyl)ethyl)-3-((5-cyclopropylisoxazol-3-yl)methyl)urea]",1.09

# Stronger by EC50, values ahead:
row,EC50 [µM],SMILES
1,0.287,"COc1ccc(C[C@@H](NC(=O)N[C@H](C)c2ccccc2)c2nc3ccccc3[nH]2)cc1 [Example 349, 1-((R)-1-(1H-Benzo[d]imidazol-2-yl)-2-(4-methoxyphenyl)ethyl)-3-((R)-1-phenylethyl)urea]"
2,0.288,"COc1ccc(C[C@@H](NC(=O)NC(C)(C)c2ccccc2)c2nc3ccccc3[nH]2)cc1 [Example 350, (R)-1-(1-(1H-Benzo[d]imidazol-2-yl)-2-(4-methoxyphenyl)ethyl)-3-(2-phenylpropan-2-yl)urea]"
3,0.35,"COc1ccc(C[C@@H](NC(=O)NC2(c3ccccc3)CC2)c2nc3ccccc3[nH]2)cc1 [Example 351, (R)-1-(1-(1H-Benzo[d]imidazol-2-yl)-2-(4-methoxyphenyl)ethyl)-3-(1-phenylcyclopropyl)urea]"
4,0.372,"COc1ccc(C[C@@H](NC(=O)NC(C)(C)c2ccc(Cl)cc2)c2nc3ccccc3[nH]2)cc1 [Example 352, (R)-1-(1-(1H-Benzo[d]imidazol-2-yl)-2-(4-methoxyphenyl)ethyl)-3-(2-(4-chlorophenyl)propan-2-yl)urea]"
5,0.144,"COc1ccc(C[C@@H](NC(=O)NC2(c3cccc(C)c3)CC2)c2nc3ccccc3[nH]2)cc1 [Example 354, (R)-1-(1-(1H-Benzo[d]imidazol-2-yl)-2-(4-methoxyphenyl)ethyl)-3-(1-(m-tolyl)cyclopropyl)urea]"
6,0.157,"COc1ccc(C[C@@H](NC(=O)NC2(c3ccc(Cl)cc3)CC2)c2nc3ccccc3[nH]2)cc1 [Example 355, (R)-1-(1-(1H-Benzo[d]imidazol-2-yl)-2-(4-methoxyphenyl)ethyl)-3-(1-(4-chlorophenyl)cyclopropyl)urea]"
7,0.176,"COc1ccc(C[C@@H](NC(=O)NC2(c3ccc(C(F)(F)F)cc3)CC2)c2nc3ccccc3[nH]2)cc1 [Example 358, (R)-1-(1-(1H-Benzo[d]imidazol-2-yl)-2-(4-methoxyphenyl)ethyl)-3-(1-(4-(trifluoromethyl)phenyl)cyclopropyl)urea]"
8,0.01,"O=C(N[C@H](Cc1ccc(CF)cc1)c1nc2ccccc2[nH]1)N[C@H]1CC[C@H](O)CC1 [Example 364, 1-((R)-1-(1H-Benzo[d]imidazol-2-yl)-2-(4-(fluoromethyl)phenyl)ethyl)-3-(trans-4-hydroxycyclohexyl)urea]"
